pEC50: −log10 of the molar value.
Molecular target: T1, human mAChR M4 (Homo sapiens, UniProt P08173)
T1 construct: expressed in transfected cells; host or cells: CHO-K1 (American Type Culture Collection), stably expressing hM4 and Gqi5
T1 sequence (P08173 1-479): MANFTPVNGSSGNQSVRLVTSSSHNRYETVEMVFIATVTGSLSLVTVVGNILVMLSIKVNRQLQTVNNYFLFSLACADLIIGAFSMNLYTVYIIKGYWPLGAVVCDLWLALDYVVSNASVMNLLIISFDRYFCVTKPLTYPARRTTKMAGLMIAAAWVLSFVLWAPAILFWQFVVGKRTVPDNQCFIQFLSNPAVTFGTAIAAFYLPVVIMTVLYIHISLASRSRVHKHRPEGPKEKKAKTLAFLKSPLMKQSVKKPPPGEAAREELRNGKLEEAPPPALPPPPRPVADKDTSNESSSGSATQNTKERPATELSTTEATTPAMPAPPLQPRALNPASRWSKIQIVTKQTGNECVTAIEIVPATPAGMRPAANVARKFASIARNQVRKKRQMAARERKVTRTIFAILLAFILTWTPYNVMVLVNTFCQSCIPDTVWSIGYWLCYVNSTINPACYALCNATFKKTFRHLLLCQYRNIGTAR
Test: mAChR M4 cell-based functional assay: calcium mobilization (Fluo-4, FDSS), potentiation of EC20 acetylcholine response in hM4-Gqi5 CHO-K1 cells
Design: Emax: dose or concentration left out as unconfirmed
Conditions: for Emax at 30 µM: CHO-K1, % ACh maximum at 30 μM; for Emax at 30 µM / pEC50: human M4; for pEC50: potentiation of EC20 acetylcholine response, calcium mobilization
Summary of the method: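 Readout is the fluorescence-ratio rise at 1 Hz on FDSS, with PAM activity taken as concentration-dependent enhancement of the EC20 acetylcholine response, fitted four-parameter for EC50/Emax. hM4-Gqi5 CHO-K1 cells carried Fluo-4 AM dye; test compounds (11 points, 1:3) preceded EC20 acetylcholine additions at 144 s and 230 s.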

Row | Compound | Emax at 30 µM | pEC50 | Emax (CHO-K1)
1 | Cc1cc(Cl)c(-c2cnc3c(c2)CN(c2nn4c(=O)cc(C(F)F)nc4c(C)c2C)CC3)cn1 [Compound 1-187, 7-(3-(4-chloro-6-methylpyridin-3-yl)-7,8-dihydro-1,6-naphthyridin-6(5H)-yl)-2-(difluoromethyl)-8,9-dimethyl-4H-pyrimido[1,2-b]pyridazin-4-one] | 95% | 6.96 | 
2 | COCc1cc(=O)n2nc(N3CCc4ncc(-c5ccsc5)cc4C3)c(C)cc2n1 [Compound 1-370, 2-(methoxymethyl)-8-methyl-7-(3-(thiophen-3-yl)-7,8-dihydro-1,6-naphthyridin-6(5H)-yl)-4H-pyrimido[1,2-b]pyridazin-4-one] | 94% | 6.82 | 
3 | Cc1cc2nccc(=O)n2nc1N1CCc2ncc(Nc3ccncc3Cl)cc2C1 [Compound 2-113, 7-(3-((3-chloropyridin-4-yl)amino)-7,8-dihydro-1,6-naphthyridin-6(5H)-yl)-8-methyl-4H-pyrimido[1,2-b]pyridazin-4-one] | 97% | 7.32 | 
4 | Cc1c(N2CCc3ncc(-c4cc(F)ccc4F)cc3C2)nn2c(=O)ccnc2c1C [Compound 1-345, 7-(3-(2,5-difluorophenyl)-7,8-dihydro-1,6-naphthyridin-6(5H)-yl)-8,9-dimethyl-4H-pyrimido[1,2-b]pyridazin-4-one] | 70% | 6.70 | 
5 | Cc1cc(=O)n2nc(N3CCc4ncc(-c5cc(F)c(F)cc5F)cc4C3)c(C)cc2n1 [Compound 1-208, 2,8-dimethyl-7-(3-(2,4,5-trifluorophenyl)-7,8-dihydro-1,6-naphthyridin-6(5H)-yl)-4H-pyrimido[1,2-b]pyridazin-4-one] | 86% | 6.29 | 
6 | Cc1cc(OC(F)F)ncc1-c1cnc2c(c1)CN(c1nn3c(=O)ccnc3cc1C)CC2 [Compound 1-317, 7-(3-(6-(difluoromethoxy)-4-methylpyridin-3-yl)-7,8-dihydro-1,6-naphthyridin-6(5H)-yl)-8-methyl-4H-pyrimido[1,2-b]pyridazin-4-one] | 70% | 6.15 | 
7 | COCc1cc(=O)n2nc(N3CCc4ncc(-c5cc(F)ncc5C)cc4C3)c(C)cc2n1 [Compound 1-328, 7-(3-(2-fluoro-5-methylpyridin-4-yl)-7,8-dihydro-1,6-naphthyridin-6(5H)-yl)-2-(methoxymethyl)-8-methyl-4H-pyrimido[1,2-b] pyridazin-4-one] | 68% | 6.32 | 
8 | Cc1cc(=O)n2nc(N3CCc4ncc(-c5cnccc5C)cc4C3)c(C)c(C)c2n1 [Compound 1-117, 2,8,9-trimethyl-7-(3-(4-methylpyridin-3-yl)-7,8-dihydro-1,6-naphthyridin-6(5H)-yl)-4H-pyrimido[1,2-b]pyridazin-4-one] | 90% | 6.70 | 
9 | Cc1cc2nccc(=O)n2nc1N1CCc2ncc(N3CCOC(c4ccccc4)C3)cc2C1 (stereo in doubt) [Compound 2-73, (S)-8-methyl-7-(3-(2-phenylmorpholino)-7,8-dihydro-1,6-naphthyridin-6(5H)-yl)-4H-pyrimido[1,2-b]pyridazin-4-one] | 87% |  | 
10 | Cc1ccc2c(n1)CCN(c1nn3c(=O)ccnc3cc1C)C2 [Compound 1-448, 8-methyl-7-(2-methyl-7,8-dihydro-1,6-naphthyridin-6(5H)-yl)-4H-pyrimido[1,2-b] pyridazin-4-one] |  | 5.64 | 66%
11 | Cc1c(N2CCc3ncc(-c4ccc(N(C)C)nc4)cc3C2)nn2c(=O)ccnc2c1C [Compound 1-89, 7-(3-(6-(dimethylamino)pyridin-3-yl)-7,8-dihydro-1,6-naphthyridin-6(5H)-yl)-8,9-dimethyl-4H-pyrimido[1,2-b]pyridazin-4-one] | 70% | 6.64 | 
12 | Cc1c(N2CCc3ncc(-c4cncc(Cl)c4)cc3C2)nn2c(=O)cc(C(F)F)nc2c1C [Compound 1-160, 7-(3-(5-chloropyridin-3-yl)-7,8-dihydro-1,6-naphthyridin-6(5H)-yl)-2-(difluoromethyl)-8,9-dimethyl-4H-pyrimido[1,2-b]pyridazin-4-one] | 82% | 6.26 | 
13 | Cc1c(N2CCc3ncc(-c4cnn(-c5ccccn5)c4)cc3C2)nn2c(=O)cc(C(F)F)nc2c1C [Compound 1-163, 2-(difluoromethyl)-8,9-dimethyl-7-(3-(1-(pyridin-2-yl)-1H-pyrazol-4-yl)-7,8-dihydro-1,6-naphthyridin-6(5H)-yl)-4H-pyrimido[1,2-b]pyridazin-4-one] | 71% | 5.99 | 
14 | Cc1cc(-c2cnc3c(c2)CN(c2nn4c(=O)cc(C)nc4c(C)c2C)CC3)ccn1 [Compound 1-243, 2,8,9-trimethyl-7-(3-(2-methylpyridin-4-yl)-7,8-dihydro-1,6-naphthyridin-6(5H)-yl)-4H-pyrimido[1,2-b] pyridazin-4-one] | 84% | 6.91 | 
15 | Cc1cc2nc(C(=O)N3CC4(COC4)C3)cc(=O)n2nc1N1CCc2ncc(C(F)(F)F)cc2C1 [Compound 1-44, 8-methyl-2-(2-oxa-6-azaspiro[3.3]heptane-6-carbonyl)-7-(3-(trifluoromethyl)-7,8-dihydro-1,6-naphthyridin-6(5H)-yl)-4H-pyrimido[1,2-b]pyridazin-4-one] | 92% | 5.95 | 
16 | Cc1ccc(-c2cnc3c(c2)CN(c2nn4c(=O)c(Cl)cnc4cc2C)CC3)cn1 [Compound 1-14, 3-chloro-8-methyl-7-(3-(6-methylpyridin-3-yl)-7,8-dihydro-1,6-naphthyridin-6(5H)-yl)-4H-pyrimido[1,2-b]pyridazin-4-one] | 77% | 7.16 | 
17 | Cc1cc2nccc(=O)n2nc1N1CCc2ncc(-n3cccn3)cc2C1 [Compound 2-6, 7-(3-(1H-pyrazol-1-yl)-7,8-dihydro-1,6-naphthyridin-6(5H)-yl)-8-methyl-4H-pyrimido[1,2-b]pyridazin-4-one] | 65% | 5.93 | 
18 | Cc1cc2nccc(=O)n2nc1N1CCc2ncc(Nc3cccc(F)c3F)cc2C1 [Compound 2-106, 7-(3-((2,3-difluorophenyl)amino)-7,8-dihydro-1,6-naphthyridin-6(5H)-yl)-8-methyl-4H-pyrimido[1,2-b]pyridazin-4-one] | 84% | 7.49 | 
19 | Cc1cc2ncc(Cl)c(=O)n2nc1N1CCc2ncc(N3CCCn4nccc43)cc2C1 [Compound 2-4, 3-chloro-7-(3-(6,7-dihydropyrazolo[1,5-a]pyrimidin-4(5H)-yl)-7,8-dihydro-1,6-naphthyridin-6(5H)-yl)-8-methyl-4H-pyrimido[1,2-b]pyridazin-4-one] | 115% | 7.52 | 
20 | COc1ccc(-c2cnc3c(c2)CN(c2nn4c(=O)ccnc4cc2C)CC3)cn1 [Compound 1-60, 7-(3-(6-methoxypyridin-3-yl)-7,8-dihydro-1,6-naphthyridin-6(5H)-yl)-8-methyl-4H-pyrimido[1,2-b]pyridazin-4-one] | 104% | 6.85 | 
21 | Cc1cncc(-c2cnc3c(c2)CN(c2nn4c(=O)ccnc4c(C)c2C)CC3)c1 [Compound 1-147, 8,9-dimethyl-7-(3-(5-methylpyridin-3-yl)-7,8-dihydro-1,6-naphthyridin-6(5H)-yl)-4H-pyrimido[1,2-b]pyridazin-4-one] | 80% | 6.52 | 
22 | Cc1c(N2CCc3ncc(-c4cnccn4)cc3C2)nn2c(=O)cc(C(F)F)nc2c1C [Compound 1-116, 2-(difluoromethyl)-8,9-dimethyl-7-(3-(pyrazin-2-yl)-7,8-dihydro-1,6-naphthyridin-6(5H)-yl)-4H-pyrimido[1,2-b]pyridazin-4-one] | 93% | 7.72 | 
23 | COc1ccnc(Nc2cnc3c(c2)CN(c2nn4c(=O)ccnc4cc2C)CC3)n1 [Compound 2-140, 7-(3-((4-methoxypyrimidin-2-yl)amino)-7,8-dihydro-1,6-naphthyridin-6(5H)-yl)-8-methyl-4H-pyrimido[1,2-b]pyridazin-4-one] | 56% | 6.01 | 
24 | Cc1cc(C(F)F)ncc1-c1cnc2c(c1)CN(c1nn3c(=O)ccnc3cc1C)CC2 [Compound 1-375, 7-(3-(6-(difluoromethyl)-4-methylpyridin-3-yl)-7,8-dihydro-1,6-naphthyridin-6(5H)-yl)-8-methyl-4H-pyrimido [1,2-b]pyridazin-4-one] | 75% | 6.56 | 
25 | Cc1cc2nccc(=O)n2nc1N1CCc2ncc(Nc3cncnc3C)cc2C1 [Compound 2-139, 8-methyl-7-(3-((4-methylpyrimidin-5-yl)amino)-7,8-dihydro-1,6-naphthyridin-6(5H)-yl)-4H-pyrimido[1,2-b]pyridazin-4-one] | 97% | 5.74 | 
26 | Cc1cc(=O)n2nc(N3CCc4ncc(-c5ccc(CO)s5)cc4C3)c(C)cc2n1 [Compound 1-299, 7-(3-(5-(hydroxymethyl)thiophen-2-yl)-7,8-dihydro-1,6-naphthyridin-6(5H)-yl)-2,8-dimethyl-4H-pyrimido[1,2-b]pyridazin-4-one] | 93% | 7.39 | 
